Data taken from ChEMBL document CHEMBL4706603, “Discovery of VEGFR-2 inhibitors exerting significant anticancer activity against CD44+ and CD133+ cancer stem cells (CSCs): Reversal of TGF-β induced epithelial-mesenchymal transition (EMT) in hepatocellular carcinoma” (Eur J Med Chem, 2020).

How the values were obtained:
MCF7 = assay: Cytotoxicity against human MCF7 cells assessed as reduction in cell viability incubated for 24 hrs by MTT assay; assay type: functional, cell-based; details: for IC50: MCF7, 24 h
[1] = Inhibition of VEGFR2 expression in human HUVEC assessed as mean fluorescence intensity at IC50 incubated for 48 hrs by FITC based flow cytometry analysis (reference value: 49.24 +/- 0.47); assay type: functional
HUVEC [2] = assay: Induction of apoptosis in human HUVEC assessed as late apoptotic cells at IC50 incubated for 48 hrs by annexin V-FITC and PI staining based flow cytometry; assay type: functional
[3] = Inhibition of VEGF expression in human HUVEC assessed as mean fluorescence intensity at IC50 incubated for 48 hrs by FITC based flow cytometry analysis (reference value: 53.91+/- 0.95); assay type: functional
HUVEC [4] = assay: Antiproliferative activity against human HUVEC assessed as reduction in cell viability incubated for 24 hrs by MTT assay; assay type: functional, cell-based
[5] = Inhibition of VEGFR2 expression in human HUVEC assessed as mean fluorescence intensity at IC50 incubated for 48 hrs by fluorescence microscopic analysis (reference value: 1.448 +/- 0.01); assay type: functional
MDA-MB-231 [6] = assay: Cytotoxicity against human MDA-MB-231 cells assessed as reduction in cell viability incubated for 24 hrs by MTT assay; assay type: functional, cell-based; details: for IC50: MDA-MB-231, 24 h
HepG2 = assay: Cytotoxicity against human HepG2 cells assessed as reduction in cell viability incubated for 24 hrs by MTT assay; assay type: functional, cell-based; details: for IC50: HepG2, 24 h
HUVEC [7] = assay: Induction of apoptosis in human HUVEC assessed as early apoptotic cells at IC50 incubated for 48 hrs by annexin V-FITC and PI staining based flow cytometry (reference value: <1%); assay type: functional
MDA-MB-231 [8] = assay: Induction of apoptosis in human MDA-MB-231 cells assessed as late apoptotic cells at IC50 incubated for 72 hrs by Alexa Fluor488-annexin V/PI staining based flow cytometric analysis (Rvb= 0.0 %); assay type: functional
MDA-MB-231 [9] = assay: Induction of apoptosis in human MDA-MB-231 cells assessed as viable cells at IC50 incubated for 72 hrs by Alexa Fluor488-annexin V/PI staining based flow cytometric analysis (Rvb= 99.4 %); assay type: functional
MDA-MB-231 [10] = assay: Induction of apoptosis in human MDA-MB-231 cells assessed as necrotic cells at IC50 incubated for 72 hrs by Alexa Fluor488-annexin V/PI staining based flow cytometric analysis (Rvb= 0.0 %); assay type: functional
Chorioallantoic membrane = assay: Antiangiogenic activity in chicken fertilized egg chorioallantoic membrane measured upto 72 hrs by CAM assay; assay type: functional, tissue-based; details: Gallus gallus, dose 0.01-2 µM, time hrs <=72
MDA-MB-231 [11] = assay: Induction of apoptosis in human MDA-MB-231 cells assessed as early apoptotic cells at IC50 incubated for 72 hrs by Alexa Fluor488-annexin V/PI staining based flow cytometric analysis (Rvb= 0.6 %); assay type: functional

Structure (SMILES): CNC(=O)c1cc(Oc2ccc(NC(=O)Nc3ccc(Cl)c(C(F)(F)F)c3)cc2)ccn1.Cc1ccc(S(=O)(=O)O)cc1 [SORAFENIB TOSYLATE]
- IC50 (MCF7): 1380 nM
- Flu intensity [1]: 6.45
- Activity (HUVEC [2]): 25.6%
- Flu intensity [3]: 7.14
- IC50 (HUVEC [4]): 1950 nM
- Flu intensity [5]: 1.1
- IC50 (MDA-MB-231 [6]): 349 nM
- IC50 (HepG2): 215 nM
- Activity (HUVEC [7]): 24.5%

Structure (SMILES): O=C(Nc1ccc(Cl)c(C(F)(F)F)c1)Nc1cccc2c(Oc3ccc([N+](=O)[O-])cc3)cccc12
- inhibition (MCF7): Dose-dependent effect
- IC50 (MCF7): 953 nM

Structure (SMILES): O=C(Nc1ccccc1)Nc1cccc2c(Oc3ccc([N+](=O)[O-])cc3)cccc12
- inhibition (MCF7): Dose-dependent effect
- IC50 (MCF7): 953 nM

Structure (SMILES): CC(=O)Nc1ccc(Oc2cccc3c(NC(=O)Nc4ccccc4)cccc23)cc1
- inhibition (MCF7): Dose-dependent effect
- Activity (MDA-MB-231 [8]): 27.4%
- Activity (MDA-MB-231 [9]): 21.2%
- Activity (MDA-MB-231 [10]): 4.5%
- Activity (Chorioallantoic membrane): Dose-dependent effect
- inhibition (MDA-MB-231 [6]): Dose-dependent effect
- IC50 (MDA-MB-231 [6]): 1410 nM
- inhibition (HepG2): Dose-dependent effect
- IC50 (HepG2): 258 nM
- Activity (MDA-MB-231 [11]): 46.37%

Structure (SMILES): COc1ccc(NC(=O)Nc2cccc3c(Oc4ccc([N+](=O)[O-])cc4)cccc23)cc1
- inhibition (MCF7): Dose-dependent effect

Structure (SMILES): O=C(Nc1ccccc1)Nc1cccc2c(O)cccc12
- inhibition (MCF7): Dose-dependent effect

Structure (SMILES): O=C(Nc1cccc(C(F)(F)F)c1)Nc1cccc2c(O)cccc12
- inhibition (MCF7): Dose-dependent effect
- IC50 (MCF7): 953 nM

Structure (SMILES): CC(=O)Nc1ccc(Oc2cccc3c(NC(=O)Nc4ccc(Cl)c(C(F)(F)F)c4)cccc23)cc1
- inhibition (MCF7): Dose-dependent effect
- Activity (MDA-MB-231 [8]): 27.5%
- Activity (MDA-MB-231 [9]): 20.9%
- Activity (MDA-MB-231 [10]): 4.6%
- Activity (Chorioallantoic membrane): Dose-dependent effect
- inhibition (MDA-MB-231 [6]): Dose-dependent effect
- IC50 (MDA-MB-231 [6]): 1410 nM
- inhibition (HepG2): Dose-dependent effect
- IC50 (HepG2): 258 nM
- Activity (MDA-MB-231 [11]): 47%

Structure (SMILES): O=C(Nc1cccc(C(F)(F)F)c1)Nc1cccc2c(Oc3ccc([N+](=O)[O-])cc3)cccc12
- inhibition (MCF7): Dose-dependent effect
- IC50 (MCF7): 953 nM
